Strand notation (5' to 3'): a small letter for the sugar, then the base; units joined by * are phosphorothioate-linked, units joined directly phosphodiester-linked; [ ] holds rarer units or linkages, { } end groups; capitals alone tell only the bases. e = 2'-O-(2-methoxyethyl) (MOE); [5mC] = 5-methylcytosine; d = 2'-deoxy (DNA)
These substances were tested on human SMAD7 mRNA (assay: Antisense inhibition of human SMAD7 mRNA expression in Hep3B cells by 5-10-5 MOE gapmers, single concentration, electroporation, RT-PCR (Example 1, Study 1 and 2)). Details: Study 2, electroporation with 15,000 nM antisense oligonucleotide, 5-10-5 MOE gapmers targeting SEQ ID NO: 1 and 2.
Assay type: cell-based
Procedure, shortened: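 Hep3B cells (20,000/well) electroporated with 5-10-5 MOE gapmer at 5,000 nM or 15,000 nM for approximately 24 h. SMAD7 mRNA quantified by real-time PCR with primer probe set RTS5062 and normalized to RIBOGREEN total RNA. Values are percent inhibition relative to untreated controls.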

| Substance | % inhibition of SMAD7 mRNA expression [%] |
| --- | --- |
| 771469 (antisense eT*eT*e[5mC]*eT*eG*d[5mC]*dA*d[5mC]*d[5mC]*dA*dG*d[5mC]*dT*dG*dA*e[5mC]*eT*e[5mC]*eT*eT) [compound 771469] | 13 |
| 771471 (antisense eG*e[5mC]*eT*e[5mC]*e[5mC]*dG*d[5mC]*dA*d[5mC]*d[5mC]*dT*dT*d[5mC]*dT*dG*e[5mC]*eA*e[5mC]*e[5mC]*eA) [compound 771471] | 43 |
| 771472 (antisense eA*eT*eT*eT*eT*dG*d[5mC]*dT*d[5mC]*d[5mC]*dG*d[5mC]*dA*d[5mC]*d[5mC]*eT*eT*e[5mC]*eT*eG) [compound 771472] | 0 |
| 771477 (antisense eT*eG*e[5mC]*eG*eG*dT*dT*dG*dT*dA*d[5mC]*dA*d[5mC]*d[5mC]*d[5mC]*eA*e[5mC]*eA*e[5mC]*eA) [compound 771477] | 20 |
| 771480 (antisense eA*eG*e[5mC]*e[5mC]*eT*dT*dG*dA*dT*dG*dG*dA*dG*dA*dA*eA*e[5mC]*e[5mC]*eG*eG) [compound 771480] | 46 |
| 771485 (antisense eA*eA*eG*e[5mC]*e[5mC]*d[5mC]*dG*dT*d[5mC]*d[5mC]*dA*d[5mC]*dG*dG*d[5mC]*eT*eG*e[5mC]*eT*eG) [compound 771485] | 15 |
| 771488 (antisense e[5mC]*eT*eG*eA*eT*d[5mC]*dT*dG*d[5mC]*dA*d[5mC]*dG*dG*dT*dA*eA*eA*eG*e[5mC]*e[5mC]) [compound 771488] | 53 |
| 771493 (antisense e[5mC]*eG*eG*eG*e[5mC]*dA*dG*d[5mC]*dT*dG*d[5mC]*dT*dG*dA*dT*eG*eA*eA*e[5mC]*eT) [compound 771493] | 17 |
| 771495 (antisense e[5mC]*eT*eA*eG*e[5mC]*d[5mC]*dA*dG*d[5mC]*dA*d[5mC]*dG*dG*dG*d[5mC]*eA*eG*e[5mC]*eT*eG) [compound 771495] | 18 |
| 771496 (antisense eT*eG*eA*e[5mC]*e[5mC]*dT*d[5mC]*dT*dA*dG*d[5mC]*d[5mC]*dA*dG*d[5mC]*eA*e[5mC]*eG*eG*eG) [compound 771496] | 20 |
| 771501 (antisense eG*e[5mC]*eA*e[5mC]*eG*d[5mC]*dG*dG*d[5mC]*dT*dA*d[5mC]*d[5mC]*dG*dG*e[5mC]*eT*eG*eT*eT) [compound 771501] | 16 |
| 771503 (antisense eG*e[5mC]*eT*e[5mC]*eA*d[5mC]*dG*d[5mC]*dT*d[5mC]*dT*dG*dT*d[5mC]*d[5mC]*e[5mC]*e[5mC]*eT*e[5mC]*e[5mC]) [compound 771503] | 27 |
| 771504 (antisense e[5mC]*eA*eG*e[5mC]*eT*d[5mC]*dA*d[5mC]*dG*d[5mC]*dT*d[5mC]*dT*dG*dT*e[5mC]*e[5mC]*e[5mC]*e[5mC]*eT) [compound 771504] | 48 |
| 771508 (antisense e[5mC]*e[5mC]*eT*eG*e[5mC]*dT*d[5mC]*dA*dG*d[5mC]*dT*d[5mC]*dA*d[5mC]*dG*e[5mC]*eT*e[5mC]*eT*eG) [compound 771508] | 8 |
| 771510 (antisense eA*eG*eT*eG*eT*dG*dG*d[5mC]*d[5mC]*dT*dG*d[5mC]*dT*d[5mC]*dA*eG*e[5mC]*eT*e[5mC]*eA) [compound 771510] | 35 |
| 771511 (antisense eT*eT*eT*eG*eA*dA*dG*dT*dG*dT*dG*dG*d[5mC]*d[5mC]*dT*eG*e[5mC]*eT*e[5mC]*eA) [compound 771511] | 31 |
| 771516 (antisense eG*eA*eG*eG*eA*dA*dA*dA*dT*dA*dT*dT*dA*dG*d[5mC]*eA*eG*e[5mC]*eA*eA) [compound 771516] | 8 |
| 771518 (antisense eA*eA*eG*e[5mC]*eA*d[5mC]*dT*d[5mC]*dA*dG*dG*dA*dG*dG*dA*eA*eA*eA*eT*eA) [compound 771518] | 4 |
| 771519 (antisense eA*eA*eA*eG*e[5mC]*dA*dA*dG*d[5mC]*dA*d[5mC]*dT*d[5mC]*dA*dG*eG*eA*eG*eG*eA) [compound 771519] | 25 |

Same assay, conditions: electroporation with 15,000 nM antisense oligonucleotide (Study 2), 5-10-5 MOE gapmers targeting SEQ ID NO: 1 and 2

| Substance | % Inhibition of SMAD7 mRNA [%] |
| --- | --- |
| 771473 (antisense eA*eG*e[5mC]*e[5mC]*eG*dA*dT*dT*dT*dT*dG*d[5mC]*dT*d[5mC]*d[5mC]*eG*e[5mC]*eA*e[5mC]*e[5mC]) [compound 771473] | 37 |
| 771481 (antisense eG*e[5mC]*eA*eG*eG*d[5mC]*dT*dG*dT*dA*d[5mC]*dG*d[5mC]*d[5mC]*dT*eT*e[5mC]*eT*e[5mC]*eG) [compound 771481] | 26 |
| 771489 (antisense e[5mC]*eA*eA*eA*eG*d[5mC]*dT*dG*dA*dT*d[5mC]*dT*dG*d[5mC]*dA*e[5mC]*eG*eG*eT*eA) [compound 771489] | 34 |
| 771497 (antisense eG*eA*eA*eG*eA*dT*dG*dA*d[5mC]*d[5mC]*dT*d[5mC]*dT*dA*dG*e[5mC]*e[5mC]*eA*eG*e[5mC]) [compound 771497] | 25 |
| 771505 (antisense e[5mC]*eT*e[5mC]*eA*eG*d[5mC]*dT*d[5mC]*dA*d[5mC]*dG*d[5mC]*dT*d[5mC]*dT*eG*eT*e[5mC]*e[5mC]*e[5mC]) [compound 771505] | 29 |
| 771512 (antisense eA*eG*eT*eA*eG*dT*dT*dT*dG*dA*dA*dG*dT*dG*dT*eG*eG*e[5mC]*e[5mC]*eT) [compound 771512] | 34 |
| 771520 (antisense eA*eT*eG*eA*eA*dA*dA*dG*d[5mC]*dA*dA*dG*d[5mC]*dA*d[5mC]*eT*e[5mC]*eA*eG*eG) [compound 771520] | 37 |

Same assay, conditions: electroporation, 15,000 nM antisense oligonucleotide (Study 2), 5-10-5 MOE gapmers targeting SEQ ID NO: 1 and 2

| Substance | % inhibition of SMAD7 mRNA expression [%] |
| --- | --- |
| 771473 (antisense eA*eG*e[5mC]*e[5mC]*eG*dA*dT*dT*dT*dT*dG*d[5mC]*dT*d[5mC]*d[5mC]*eG*e[5mC]*eA*e[5mC]*e[5mC]) [compound 771473] | 9 |
| 771475 (antisense e[5mC]*eG*eT*e[5mC]*eA*dG*d[5mC]*dT*dG*dG*dA*dT*dG*d[5mC]*d[5mC]*eG*e[5mC]*eA*eG*e[5mC]) [compound 771475] | 26 |
| 771481 (antisense eG*e[5mC]*eA*eG*eG*d[5mC]*dT*dG*dT*dA*d[5mC]*dG*d[5mC]*d[5mC]*dT*eT*e[5mC]*eT*e[5mC]*eG) [compound 771481] | 0 |
| 771482 (antisense e[5mC]*e[5mC]*eG*e[5mC]*eT*dG*d[5mC]*dA*dG*dG*d[5mC]*dT*dG*dT*dA*e[5mC]*eG*e[5mC]*e[5mC]*eT) [compound 771482] | 38 |
| 771483 (antisense eA*e[5mC]*eG*eG*e[5mC]*dT*dG*d[5mC]*dT*dG*d[5mC]*dA*dT*dA*dA*eA*e[5mC]*eT*e[5mC]*eG) [compound 771483] | 22 |
| 771489 (antisense e[5mC]*eA*eA*eA*eG*d[5mC]*dT*dG*dA*dT*d[5mC]*dT*dG*d[5mC]*dA*e[5mC]*eG*eG*eT*eA) [compound 771489] | 27 |
| 771490 (antisense e[5mC]*eT*eT*e[5mC]*eA*d[5mC]*dA*dA*dA*dG*d[5mC]*dT*dG*dA*dT*e[5mC]*eT*eG*e[5mC]*eA) [compound 771490] | 44 |
| 771491 (antisense eG*eG*e[5mC]*e[5mC]*e[5mC]*d[5mC]*dA*dG*d[5mC]*d[5mC]*d[5mC]*dT*dT*d[5mC]*dA*e[5mC]*eA*eA*eA*eG) [compound 771491] | 39 |
| 771497 (antisense eG*eA*eA*eG*eA*dT*dG*dA*d[5mC]*d[5mC]*dT*d[5mC]*dT*dA*dG*e[5mC]*e[5mC]*eA*eG*e[5mC]) [compound 771497] | 0 |
| 771498 (antisense e[5mC]*eT*eG*eT*eT*dG*dA*dA*dG*dA*dT*dG*dA*d[5mC]*d[5mC]*eT*e[5mC]*eT*eA*eG) [compound 771498] | 48 |
| 771499 (antisense eG*e[5mC]*eT*eA*e[5mC]*d[5mC]*dG*dG*d[5mC]*dT*dG*dT*dT*dG*dA*eA*eG*eA*eT*eG) [compound 771499] | 1 |
| 771505 (antisense e[5mC]*eT*e[5mC]*eA*eG*d[5mC]*dT*d[5mC]*dA*d[5mC]*dG*d[5mC]*dT*d[5mC]*dT*eG*eT*e[5mC]*e[5mC]*e[5mC]) [compound 771505] | 0 |
| 771512 (antisense eA*eG*eT*eA*eG*dT*dT*dT*dG*dA*dA*dG*dT*dG*dT*eG*eG*e[5mC]*e[5mC]*eT) [compound 771512] | 0 |
| 771513 (antisense eA*eG*e[5mC]*eA*eA*dA*dG*dT*dA*dG*dT*dT*dT*dG*dA*eA*eG*eT*eG*eT) [compound 771513] | 34 |
| 771514 (antisense eT*eT*eA*eG*e[5mC]*dA*dG*d[5mC]*dA*dA*dA*dG*dT*dA*dG*eT*eT*eT*eG*eA) [compound 771514] | 19 |
| 771520 (antisense eA*eT*eG*eA*eA*dA*dA*dG*d[5mC]*dA*dA*dG*d[5mC]*dA*d[5mC]*eT*e[5mC]*eA*eG*eG) [compound 771520] | 12 |
| 771521 (antisense e[5mC]*eA*eT*eG*eA*dA*dA*dA*dG*d[5mC]*dA*dA*dG*d[5mC]*dA*e[5mC]*eT*e[5mC]*eA*eG) [compound 771521] | 33 |

Same assay, conditions: electroporation, 15,000 nM, approximately 24 hours, relative to untreated control cells, gapmers targeting SEQ ID NO: 1 and 2

| Substance | % inhibition of SMAD7 mRNA expression [%] |
| --- | --- |
| 771470 (antisense eG*e[5mC]*eA*e[5mC]*e[5mC]*dT*dT*d[5mC]*dT*dG*d[5mC]*dA*d[5mC]*d[5mC]*dA*eG*e[5mC]*eT*eG*eA) [compound 771470] | 56 |
| 771478 (antisense e[5mC]*eA*e[5mC]*e[5mC]*eT*dT*dG*dT*dG*dT*dA*d[5mC]*d[5mC]*dA*dA*e[5mC]*eA*eG*e[5mC]*eG) [compound 771478] | 53 |
| 771486 (antisense e[5mC]*eG*eG*eT*eA*dA*dA*dG*d[5mC]*d[5mC]*d[5mC]*dG*dT*d[5mC]*d[5mC]*eA*e[5mC]*eG*eG*e[5mC]) [compound 771486] | 52 |
| 771494 (antisense e[5mC]*eA*eG*e[5mC]*eA*d[5mC]*dG*dG*dG*d[5mC]*dA*dG*d[5mC]*dT*dG*e[5mC]*eT*eG*eA*eT) [compound 771494] | 20 |
| 771502 (antisense e[5mC]*eG*e[5mC]*eT*e[5mC]*dT*dG*dT*d[5mC]*d[5mC]*d[5mC]*d[5mC]*dT*d[5mC]*d[5mC]*eG*e[5mC]*eA*e[5mC]*eG) [compound 771502] | 48 |
| 771517 (antisense e[5mC]*eT*e[5mC]*eA*eG*dG*dA*dG*dG*dA*dA*dA*dA*dT*dA*eT*eT*eA*eG*e[5mC]) [compound 771517] | 25 |

Source: patent US10517889B2, “Modulators of SMAD7 expression” (Ionis Pharmaceuticals, Inc., priority 2017, dated 2019)
